This passage reports IC50 results from ChEMBL document CHEMBL1127807 (J Med Chem, 1994).

One assay has as its target Mu-type opioid receptor (Cavia porcellus, UniProt P97266). The experiment in a line: Tested for the binding affinity against the Mu opioid receptor in guinea pig brain using [3H]-DAMGO.
Assay [1] has as its target Opioid receptors; mu/kappa/delta (Homo sapiens, UniProt P41145+P41143+P35372). The experiment in a line: Tested for the binding affinity against the opioid receptor in guinea pig brain using [3H]bremazocine. Set-up: species or system Cavia porcellus. Particulars: target entry is the homologue from another species.
In assay [2] the target is Kappa-type opioid receptor (Cavia porcellus, UniProt P41144). The experiment in a line: Tested for the binding affinity against the Kappa opioid receptor in guinea pig brain using [3H]U-69593.
Sequence of Kappa-type opioid receptor (P41144 whole entry): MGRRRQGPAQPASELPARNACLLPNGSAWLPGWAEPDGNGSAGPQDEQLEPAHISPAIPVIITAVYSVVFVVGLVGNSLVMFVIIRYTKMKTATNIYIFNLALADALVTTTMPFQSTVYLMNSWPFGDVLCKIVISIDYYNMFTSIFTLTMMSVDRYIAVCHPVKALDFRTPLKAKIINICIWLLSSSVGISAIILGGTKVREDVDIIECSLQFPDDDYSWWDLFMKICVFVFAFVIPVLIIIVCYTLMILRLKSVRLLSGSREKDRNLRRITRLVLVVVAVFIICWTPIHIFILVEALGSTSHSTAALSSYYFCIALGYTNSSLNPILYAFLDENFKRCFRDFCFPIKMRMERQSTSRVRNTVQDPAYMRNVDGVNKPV

Sequence of Mu-type opioid receptor (P97266 whole entry): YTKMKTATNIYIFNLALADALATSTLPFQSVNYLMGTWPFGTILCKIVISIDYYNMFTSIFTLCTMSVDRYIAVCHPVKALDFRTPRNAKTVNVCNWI

One may read the IC50 as the concentration that gives 50% inhibition. Lower therefore signals greater potency. With `Oc1ccc2c3c1OC1[C@@H](OCc4ccc(-c5ccccc5)cc4)CCC4(O)C(C2)N(CC2CC2)CCC314` (some centres not stated), the IC50 was found to be 10 nM on Mu-type opioid receptor, 28 nM in assay [1] and 12 nM in assay [2].
In the same order, the values of `Oc1ccc2c3c1OC1[C@H](OCc4ccc5ccccc5c4)CCC4(O)C(C2)N(CC2CC2)CCC314` (some centres not stated) are 1.7 nM, 5 nM and 1.5 nM.
With `Oc1ccc2c3c1OC1[C@@H](OCc4ccccc4)CCC4(O)C(C2)N(CC2CC2)CCC314` (some centres not stated), the IC50 amounted to 0.3 nM on Mu-type opioid receptor, 1.5 nM in assay [1] and 0.6 nM in assay [2].
The matching figures for `Oc1ccc2c3c1OC1[C@H](OCc4ccc(-c5ccccc5)cc4)CCC4(O)C(C2)N(CC2CC2)CCC314` (some centres not stated): 0.7 nM, 3.3 nM and 1.5 nM.
The matching figures for `Oc1ccc2c3c1OC1[C@@H](OCc4cccc5ccccc45)CCC4(O)C(C2)N(CC2CC2)CCC314` (some centres not stated): 1 nM, 7.3 nM and 4.4 nM.
On to `Oc1ccc2c3c1O[C@H]1[C@H](O)CC[C@@]4(O)[C@@H](C2)N(CC2CC2)CC[C@]314` (stereo in doubt; 6), for which the figures for the half-inhibitory concentration (IC50) (at Mu-type opioid receptor; in assay [2]) were 1.1 nM and 2.6 nM, respectively.
With `Oc1ccc2c3c1OC1[C@@H](OCc4ccc5ccccc5c4)CCC4(O)C(C2)N(CC2CC2)CCC314` (some centres not stated), the half-inhibitory concentration (IC50) turned out to be 1.2 nM on Mu-type opioid receptor, 4.7 nM in assay [1] and 1.4 nM in assay [2].
In the same order, the values of `Oc1ccc2c3c1OC1[C@H](OCc4ccccc4)CCC4(O)C(C2)N(CC2CC2)CCC314` (some centres not stated) are 2.4 nM, 3.4 nM and 2 nM.
In the same order, the values of `Oc1ccc2c3c1OC1[C@H](OCc4cccc5ccccc45)CCC4(O)C(C2)N(CC2CC2)CCC314` (some centres not stated) are 3.1 nM, 11 nM and 6.1 nM.
As for `Oc1ccc2c3c1O[C@H]1[C@H](O)CC[C@@]4(O)[C@@H](C2)N(CC2CC2)CC[C@]314` (stereo in doubt; 7), the values for the IC50 (at Mu-type opioid receptor; in assay [2]) were 0.5 nM and 1.8 nM, respectively.
As for `O=C(COC1CCC2(O)C3Cc4ccc(O)c5c4C2(CCN3CC2CC2)C1O5)C1[C@H]2C[C@@H]3C[C@@H](C[C@H]1C3)C2` (some centres not stated), the half-maximal inhibitory concentration (IC50) turned out to be 6.6 nM at Mu-type opioid receptor, 13 nM in assay [1] and 3.3 nM in assay [2].
In the case of `Oc1ccc2c3c1OC1[C@@H](OCc4c5ccccc5cc5ccccc45)CCC4(O)C(C2)N(CC2CC2)CCC314` (some centres not stated), the IC50 at Mu-type opioid receptor worked out at 6.6 nM; in assay [1] it was 45 nM; in assay [2], 34 nM.
The matching figures for `Oc1ccc2c3c1OC1[C@H](OCc4c5ccccc5cc5ccccc45)CCC4(O)C(C2)N(CC2CC2)CCC314` (some centres not stated): 16 nM, 71 nM and 27 nM.
